Measured values from US9464044B2, “Compound having ability to inhibit 11Beta-HSD1 enzyme or pharmaceutically acceptable salt thereof, method for producing same, and pharmaceutical composition containing same as active ingredient” (AHN-GOOK PHARMACEUTICAL CO., LTD., priority 2012, dated 2016).

Assays:
11β-HSD1 = 11β-HSD1 (Homo sapiens (Human), UniProt P28845); experiment: 11β-HSD1 inhibiting activity, HTRF assay with human microsomal fractions; format: biochemical; conditions: 160 nM cortisone, 200 μM NADPH, 2 h at 37° C.
Sequence of 11β-HSD1 (P28845 whole entry): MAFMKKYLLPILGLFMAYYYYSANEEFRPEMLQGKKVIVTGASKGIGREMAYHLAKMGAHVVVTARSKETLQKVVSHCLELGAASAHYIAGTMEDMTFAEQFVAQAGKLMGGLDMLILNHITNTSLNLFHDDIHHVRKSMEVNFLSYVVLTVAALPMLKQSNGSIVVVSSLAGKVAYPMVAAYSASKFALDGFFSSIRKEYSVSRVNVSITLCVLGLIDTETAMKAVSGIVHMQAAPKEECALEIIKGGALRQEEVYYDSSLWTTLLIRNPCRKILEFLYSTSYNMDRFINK
Method: The inhibiting activity of 11β-HSD1 derived from microsomal fractions was measured using the HTRF assay (62CO2PEB, Cisbio). […] Europium (Eu^3+) cryptate and XL665-conjugated cortisol were then added to each well and incubated for an additional 2 h at room temperature. The Cortisol concentration was calculated u sing a calibration curve. The IC50 values were calculated from dose response curves using GraphPad Prism software.

KKAy mice = experiment: In vivo study of the lowering effect on plasma glucose and plasma insulin in KKAy mouse model
[1] = oral, 100 mg/kg, 3 weeks, after fasting

`NC(=O)C12CC3CC(C1)C(NC(=O)c1cccc([N-]S(=O)(=O)c4cccc(Cl)c4F)c1)C(C3)C2.[Na+]` (stereo not shown) [Example 113, E-sodium[3-((5-carbamoyladamantan-2-yl)carbamoyl)phenyl]-2-fluoro-3-chloro-benzenesulfonylamide] was tested, and the IC50 (11β-HSD1) was 2.7 nM, the “levels of plasma glucose and plasma insulin” value (KKAy mice; either 100 mg/kg or 50 mg/kg) was “significantly reduced” and the “Plasma glucose lowering effect” value (KKAy mice; [1]) was 28%. The “Plasma insulin lowering effect” value (KKAy mice; [1]) was 60%.
